The test system of one test is PC-3. Put plainly: Antiproliferative activity against human PC-3 cells assessed as inhibition of cell proliferation measured after 72 hrs by MTT assay. It is filed as functional, cell-based. Conditions: PC-3, 72 h. A general note: Tetrazolium dyes change colour on reduction, which living cells bring about.
The next test relates to ECa-109 cell line. Kind of test: Antiproliferative activity against human ECa-109 cell line cells assessed as inhibition of cell proliferation measured after 72 hrs by MTT assay. Conditions: ECa-109, 72 h. It is filed as functional, cell-based.
The next test deals with DU-145. Put plainly: Antiproliferative activity against human DU-145 cell line cells assessed as inhibition of cell proliferation measured after 72 hrs by MTT assay. Conditions: DU-145, 72 h. In kind it is functional, cell-based.
The test system of another test is MGC-803. Kind of test: Antiproliferative activity against human MGC-803 cell line cells assessed as inhibition of cell proliferation measured after 72 hrs by MTT assay. It is filed as functional, cell-based. Conditions: MGC-803, 72 h.
Another test deals with MCF7. Kind of test: Antiproliferative activity against human MCF7 cell line cells assessed as inhibition of cell proliferation measured after 72 hrs by MTT assay. It is filed as functional, cell-based. Conditions: MCF7, 72 h.
Test [1] is described as follows: Cytotoxicity against human WPMY-1 cell line cells assessed as inhibition of cell proliferation measured after 72 hrs by MTT assay. It is filed as cell-based. Conditions: WPMY-1, 72 h.

The term IC50 denotes the concentration at which inhibition is half-maximal. Turning to `Cc1[nH]c2ccccc2c1CCNC(=O)c1ccc(NC(=S)N/N=C2/C(=O)Nc3ccccc32)cc1`, the IC50 in the test with PC-3 was 17 µM; in the test with ECa-109 cell line it was above 20 µM; in the test with DU-145, 18.5 µM; in the test on MGC-803, above 20 µM; with MCF7 it was above 20 µM; in test [1] it was above 20 µM.
For `Cc1ncc(CO)c(/C=N/NC(=O)c2ccc(C(=O)NCCc3c(C)[nH]c4ccccc34)cc2)c1O`, the IC50 (in the test with PC-3; in the test on ECa-109 cell line; with DU-145; in the test with MGC-803; in the test on MCF7; in test [1]) was above 20 µM each time.
For `Cc1ccc(/C=N/NC(=S)NCc2ccc(C(=O)NCCc3c[nH]c4ccccc34)cc2)nc1`, the IC50 with PC-3 stood at 1.42 µM; with ECa-109 cell line it was 18.5 µM; in the test with DU-145, 1.2 µM; in the test on MGC-803 it was 4.85 µM; with MCF7 it was 8.62 µM; in test [1], 1.09 µM.
As to `COc1ccc2[nH]cc(CCNC(=O)c3ccc(NC(=S)N/N=C(\C)c4ccccn4)cc3)c2c1`, the IC50 with PC-3 was determined as 0.947 µM; with ECa-109 cell line, 6.48 µM; in the test on DU-145 it was 5.88 µM; in the test with MGC-803 it was 4.02 µM; with MCF7, 5.38 µM; in test [1], 4.51 µM.
Regarding `NC(=S)N/N=C/c1ncccc1N` [TRIAPINE], the IC50 in test [1] is 4.96 µM.
On to `Cc1ccc(/C=N/NC(=S)Nc2ccc(C(=O)NCCc3c[nH]c4ccc(C)cc34)cc2)nc1`, for which the IC50 in the test with PC-3 is 0.081 µM; with ECa-109 cell line, 1.63 µM; in the test on DU-145 it was 1.06 µM; with MGC-803 it was 3.12 µM; in the test with MCF7 it was 4.02 µM; in test [1], 10.9 µM.
On to `Cc1ccc(/C=N/NC(=S)NC2CCC(C(=O)NCCc3c[nH]c4ccccc34)CC2)nc1` (stereo unspecified), for which the IC50 stood at 2.22 µM in the test on PC-3; 14.1 µM in the test with ECa-109 cell line; 2.22 µM in the test on DU-145; 4.58 µM in the test on MGC-803; 8.13 µM in the test on MCF7; 1.56 µM in test [1].
In the case of `COc1ccc2[nH]cc(CCNC(=O)c3ccc(NC(=S)N/N=C/c4ccc(O)cn4)cc3)c2c1`, the IC50 was 2.48 µM with PC-3; above 20 µM in the test with ECa-109 cell line; 15.2 µM in the test with DU-145; above 20 µM with MGC-803; above 20 µM in the test on MCF7; above 20 µM in test [1].
In the case of `Cc1[nH]c2ccccc2c1CCNC(=O)c1ccc(NC(=S)N/N=C/c2ccccc2O)cc1`, the IC50 in the test with PC-3 is 5.32 µM; with ECa-109 cell line, 9.5 µM; in the test on DU-145, 14.5 µM; in the test on MGC-803, above 20 µM; in the test with MCF7, above 20 µM; in test [1] it was 2.87 µM.
Take `C/C(=N\Nc1ccc(C(=O)NCCc2c(C)[nH]c3ccccc23)cn1)c1ccccn1`: the IC50 with PC-3 is 0.406 µM; in the test with ECa-109 cell line, 0.664 µM; in the test with DU-145 it was 2.05 µM; with MGC-803, 4.22 µM; in the test with MCF7, 0.871 µM; in test [1], 0.45 µM.
For the compound `Cc1[nH]c2ccccc2c1CCNC(=O)c1ccc(NC(=S)N/N=C/c2ccc(Cl)cn2)cc1`, the IC50 in the test on PC-3 was found to be 0.454 µM; with ECa-109 cell line, 14.3 µM; in the test on DU-145, 5.22 µM; in the test on MGC-803, 11.1 µM; in the test on MCF7 it was 10.2 µM; in test [1], 1.78 µM.
As for `COc1ccc(/C=N/NC(=S)Nc2ccc(C(=O)NCCc3c(C)[nH]c4ccccc34)cc2)nc1`, the IC50 is 0.084 µM in the test on PC-3; 5.49 µM in the test with ECa-109 cell line; 4.08 µM in the test on DU-145; 6.33 µM in the test on MGC-803; 6.28 µM in the test with MCF7; above 20 µM in test [1].
Turning to `COc1ccc2[nH]cc(CCNC(=O)c3ccc(NC(=S)N/N=C/c4ccccn4)cc3)c2c1`, the IC50 in the test on PC-3 came to 0.133 µM; in the test with ECa-109 cell line it was 5.03 µM; in the test on DU-145, 4.13 µM; with MGC-803, 5.35 µM; in the test on MCF7, 6.49 µM; in test [1], 12.3 µM.
Regarding `Cc1[nH]c2ccccc2c1CCNC(=O)c1ccc(C(=O)NO)cc1`, the IC50 (with PC-3; with ECa-109 cell line; with DU-145; with MGC-803; with MCF7; in test [1]) was above 20 µM throughout.
In the case of `Cc1[nH]c2ccccc2c1CCNC(=O)c1ccc(NC(=S)N/N=C/c2ccc(C(=O)O)cn2)cc1`, the IC50 with PC-3 was 1.6 µM; with ECa-109 cell line it was 16.6 µM; in the test with DU-145, 5.66 µM; with MGC-803, above 20 µM; with MCF7, above 20 µM; in test [1], 3.22 µM.
Regarding `CN(C(=S)NN=C(c1ccccn1)c1ccccn1)C1CCCCC1`, the IC50 in test [1] amounted to 0.711 µM.
On to `Cc1ccc(/C=N/NC(=S)Nc2ccc(C(=O)NCCc3c[nH]c4ccccc34)cc2)nc1`, for which the IC50 in the test with PC-3 amounted to 0.241 µM; in the test on ECa-109 cell line, 3.94 µM; in the test with DU-145, 1.46 µM; with MGC-803, 7.02 µM; with MCF7, 7.11 µM; in test [1], 12.5 µM.
Take `C/C(=N\NC(=S)Nc1ccc(C(=O)NCCc2c(C)[nH]c3ccccc23)cc1)c1ccccn1`: the IC50 with PC-3 was determined as 0.707 µM; in the test on ECa-109 cell line it was 6 µM; in the test on DU-145 it was 4.02 µM; in the test on MGC-803, 6.24 µM; in the test with MCF7, 6.42 µM; in test [1], 3.55 µM.
As to `Cc1[nH]c2ccccc2c1CCNC(=O)c1ccc(NC(=S)N/N=C/c2ccc(O)cn2)cc1`, the IC50 in the test with PC-3 is 1.5 µM; in the test on ECa-109 cell line it was 16.2 µM; in the test with DU-145, 17 µM; in the test on MGC-803 it was above 20 µM; in the test on MCF7, above 20 µM; in test [1], above 20 µM.
For the compound `COc1ccc2[nH]cc(CCNC(=O)c3ccc(NC(=S)N/N=C/c4ccc(C)cn4)cc3)c2c1`, the IC50 in the test on PC-3 worked out at 0.061 µM; in the test on ECa-109 cell line, 5.75 µM; with DU-145, 3.22 µM; in the test on MGC-803, 10.4 µM; with MCF7, 5.33 µM; in test [1], 18.1 µM.
Take `Cc1ccc(/C=N/NC(=S)Nc2ccc(C(=O)NCCc3c[nH]c4ccccc34)cn2)nc1`: the IC50 was determined as 0.512 µM with PC-3; 12.5 µM in the test with ECa-109 cell line; 6.15 µM in the test on DU-145; 7.59 µM in the test with MGC-803; 8.32 µM in the test on MCF7; 2.5 µM in test [1].
For `Cc1[nH]c2ccccc2c1CCNC(=O)c1ccc(NC(=S)N/N=C/c2ccccn2)cc1`, the IC50 is 0.091 µM in the test on PC-3; 3.46 µM with ECa-109 cell line; 3.63 µM in the test with DU-145; 8.64 µM in the test with MGC-803; 10.3 µM in the test with MCF7; 13.1 µM in test [1].
`Cc1ccc(/C=N/NC(=S)NCCc2c[nH]c3ccccc23)nc1`: the IC50 with PC-3 was found to be 0.601 µM; with ECa-109 cell line it was 4.51 µM; with DU-145, 3.13 µM; with MGC-803, 5.66 µM; in the test on MCF7, 9.1 µM; in test [1] it was 2.33 µM.
As for `Cc1[nH]c2ccccc2c1CCNC(=O)c1ccc(NC(=S)N/N=C/c2ccc(Br)cn2)cc1`, the IC50 in the test with PC-3 was 0.322 µM; in the test with ECa-109 cell line, 13.9 µM; in the test on DU-145 it was 1.9 µM; with MGC-803, above 20 µM; in the test on MCF7 it was above 20 µM; in test [1], 1.78 µM.
Regarding `COc1ccc(/C=N/NC(=S)Nc2ccc(C(=O)NCCc3c[nH]c4ccc(OC)cc34)cc2)nc1`, the IC50 with PC-3 was 0.093 µM; in the test with ECa-109 cell line, 9.12 µM; in the test on DU-145, 4.22 µM; in the test on MGC-803, 8.92 µM; in the test on MCF7, 1.96 µM; in test [1] it was above 20 µM.
As for `Cc1ccc(/C=N/NC(=S)Nc2ccc(C(=O)NCCc3c[nH]c4ccc(Cl)cc34)cc2)nc1`, the half-maximal inhibitory concentration (IC50) in the test on PC-3 was 0.121 µM; in the test with ECa-109 cell line it was 2.4 µM; with DU-145, 0.925 µM; in the test with MGC-803, 2.67 µM; with MCF7, 7.28 µM; in test [1], 7.09 µM.

Values taken from ChEMBL document CHEMBL4732091, “Design, synthesis and biological evaluation of novel thiosemicarbazone-indole derivatives targeting prostate cancer cells” (Eur J Med Chem, 2021).
